Here are results for 1 compound from BindingDB's records for doi:10.1016/j.bmcl.2018.12.057 (Indian Institute of Technology Madras, 2019).

The target of this assay is Luciferin 4-monooxygenase (Photinus pyralis, UniProt P08659). Nature of the assay: Activation of firefly luciferase activity expressed in HEK293T cells after 6 hrs by luminescence assay.
Luciferin 4-monooxygenase, sequence (P08659 whole entry): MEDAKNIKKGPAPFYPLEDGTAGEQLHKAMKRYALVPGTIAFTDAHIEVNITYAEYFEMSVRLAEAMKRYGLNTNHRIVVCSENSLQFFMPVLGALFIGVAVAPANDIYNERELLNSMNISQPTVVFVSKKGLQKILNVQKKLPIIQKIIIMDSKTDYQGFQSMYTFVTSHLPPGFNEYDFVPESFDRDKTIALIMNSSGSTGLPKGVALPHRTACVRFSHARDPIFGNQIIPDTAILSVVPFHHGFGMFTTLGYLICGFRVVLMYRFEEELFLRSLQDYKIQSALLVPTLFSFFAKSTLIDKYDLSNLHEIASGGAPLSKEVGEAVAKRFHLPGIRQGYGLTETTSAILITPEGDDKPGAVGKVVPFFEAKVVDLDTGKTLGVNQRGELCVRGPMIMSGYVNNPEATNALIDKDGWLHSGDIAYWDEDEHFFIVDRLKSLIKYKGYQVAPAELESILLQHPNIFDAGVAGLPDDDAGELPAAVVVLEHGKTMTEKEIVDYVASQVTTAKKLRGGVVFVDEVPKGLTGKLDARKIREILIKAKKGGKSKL

As a reminder, the EC50 is the concentration at which the effect is half-maximal. Low readings indicate an effect from little substance, high ones a need for much substance. For the compound `CCCCCCCCCCCCCC(=O)O[C@@H]1[C@@H](C)[C@@]2(O)[C@@H](C=C(CO)C[C@]3(O)C(=O)C(C)=C[C@@H]23)[C@@H]2C(C)(C)[C@]12OC(C)=O` [phorbol 13-acetate 12-myristate], the EC50 stood at 10 nM. That is a double-digit nanomolar value.
